Reference: paper PMC6332596 (Journal of Hematology & Oncology, 2019)
Where two headings read alike, the source gives them in different places.

Key:
[1] = system: VEGFR3; parameters: method as in PMID 28004478; details: cited from earlier work
[2] = system: c-Kit; parameters: method as in PMID 28004478; details: cited from earlier work
[3] = system: CSF-1R; parameters: method as in PMID 28004478; details: cited from earlier work
[4] = system: off-target non-receptor kinases, proteins, GPCR, and ion channels; parameters: method as in PMID 28004478; details: cited from earlier work
[5] = Grade 1, worst grade per patient in all cycles, N = 18
[6] = Grade 2, worst grade per patient in all cycles, N = 18
[7] = Grade 3, worst grade per patient in all cycles, N = 18
[8] = Grade 4, worst grade per patient in all cycles, N = 18
[9] = Grade 5, worst grade per patient in all cycles, N = 18

COc1ccc2c(Oc3ccc4c(C(=O)Nc5ccccc5N)cccc4c3)ccnc2c1 [chiauranib]
patients with DLT (grade 3 hypertension) (65 mg/day cohort (n = 4), cycle 1): two | serious adverse events (SAE) reported (20-mg dose level, death from pulmonary infection, assessed unlikely related): one | Treatment-related adverse event: ALT increased [5]: 2 (11.1) n (%) | Treatment-related adverse event: AST increased [5]: 3 (16.7) n (%) | Treatment-related adverse event: Abdominal pain [5]: 2 (11.1) n (%) | Treatment-related adverse event: Amylase increased [5]: 3 (16.7) n (%) | Treatment-related adverse event: Blood urea increased [5]: 2 (11.1) n (%) | Treatment-related adverse event: Conjugated bilirubin increased [5]: 5 (27.8) n (%) | Treatment-related adverse event: Decreased appetite [5]: 0 n (%) | Treatment-related adverse event: Diarrhea [5]: 2 (11.1) n (%) | Treatment-related adverse event: Dysphonia [5]: 2 (11.1) n (%) | Treatment-related adverse event: Fatigue [5]: 7 (38.9) n (%) | Treatment-related adverse event: Hematuria [5]: 7 (38.9) n (%) | Treatment-related adverse event: Hyperbilirubinemia [5]: 2 (11.1) n (%) | Treatment-related adverse event: Hypertension [5]: 3 (16.7) n (%) | Treatment-related adverse event: Hypertriglyceridemia [5]: 5 (27.8) n (%) | Treatment-related adverse event: Hypothyroidism [5]: 7 (38.9) n (%) | Treatment-related adverse event: Leucopenia [5]: 2 (11.1) n (%) | Treatment-related adverse event: Mouth ulceration [5]: 1 (5.6) n (%) | Treatment-related adverse event: Nausea [5]: 4 (22.2) n (%) | Treatment-related adverse event: Neutropenia [5]: 2 (11.1) n (%) | Treatment-related adverse event: Palmar-plantar erythrodysesthesia syndrome [5]: 1 (5.6) n (%) | Treatment-related adverse event: Proteinuria [5]: 8 (44.4) n (%) | Treatment-related adverse event: Rash [5]: 1 (5.6) n (%) | Treatment-related adverse event: Thrombocytopenia [5]: 2 (11.1) n (%) | Treatment-related adverse event: Unconjugated bilirubin increased [5]: 2 (11.1) n (%) | Treatment-related adverse event: Vaginal hemorrhage [5]: 2 (11.1) n (%) | Treatment-related adverse event: ALT increased [6]: 0 n (%) | Treatment-related adverse event: AST increased [6]: 0 n (%) | Treatment-related adverse event: Abdominal pain [6]: 0 n (%) | Treatment-related adverse event: Amylase increased [6]: 1 (5.6) n (%) | Treatment-related adverse event: Blood urea increased [6]: 0 n (%) | Treatment-related adverse event: Conjugated bilirubin increased [6]: 0 n (%) | Treatment-related adverse event: Decreased appetite [6]: 2 (11.1) n (%) | Treatment-related adverse event: Diarrhea [6]: 1 (5.6) n (%) | Treatment-related adverse event: Dysphonia [6]: 0 n (%) | Treatment-related adverse event: Fatigue [6]: 4 (22.2) n (%) | Treatment-related adverse event: Hematuria [6]: 0 n (%) | Treatment-related adverse event: Hyperbilirubinemia [6]: 0 n (%) | Treatment-related adverse event: Hypertension [6]: 1 (5.6) n (%) | Treatment-related adverse event: Hypertriglyceridemia [6]: 1 (5.6) n (%) | Treatment-related adverse event: Hypothyroidism [6]: 0 n (%) | Treatment-related adverse event: Leucopenia [6]: 1 (5.6) n (%) | Treatment-related adverse event: Mouth ulceration [6]: 1 (5.6) n (%) | Treatment-related adverse event: Nausea [6]: 0 n (%) | Treatment-related adverse event: Neutropenia [6]: 0 n (%) | Treatment-related adverse event: Palmar-plantar erythrodysesthesia syndrome [6]: 1 (5.6) n (%) | Treatment-related adverse event: Proteinuria [6]: 0 n (%) | Treatment-related adverse event: Rash [6]: 1 (5.6) n (%) | Treatment-related adverse event: Thrombocytopenia [6]: 0 n (%) | Treatment-related adverse event: Unconjugated bilirubin increased [6]: 0 n (%) | Treatment-related adverse event: Vaginal hemorrhage [6]: 0 n (%) | Treatment-related adverse event: ALT increased [7]: 0 n (%) | Treatment-related adverse event: AST increased [7]: 0 n (%) | Treatment-related adverse event: Abdominal pain [7]: 0 n (%) | Treatment-related adverse event: Amylase increased [7]: 0 n (%) | Treatment-related adverse event: Blood urea increased [7]: 0 n (%) | Treatment-related adverse event: Conjugated bilirubin increased [7]: 0 n (%) | Treatment-related adverse event: Decreased appetite [7]: 0 n (%) | Treatment-related adverse event: Diarrhea [7]: 0 n (%) | Treatment-related adverse event: Dysphonia [7]: 0 n (%) | Treatment-related adverse event: Fatigue [7]: 0 n (%) | Treatment-related adverse event: Hematuria [7]: 0 n (%) | Treatment-related adverse event: Hyperbilirubinemia [7]: 0 n (%) | Treatment-related adverse event: Hypertension [7]: 2 (11.1) n (%) | Treatment-related adverse event: Hypertriglyceridemia [7]: 0 n (%) | Treatment-related adverse event: Hypothyroidism [7]: 0 n (%) | Treatment-related adverse event: Leucopenia [7]: 0 n (%) | Treatment-related adverse event: Mouth ulceration [7]: 0 n (%) | Treatment-related adverse event: Nausea [7]: 0 n (%) | Treatment-related adverse event: Neutropenia [7]: 2 (11.1) n (%) | Treatment-related adverse event: Palmar-plantar erythrodysesthesia syndrome [7]: 0 n (%) | Treatment-related adverse event: Proteinuria [7]: 0 n (%) | Treatment-related adverse event: Rash [7]: 0 n (%) | Treatment-related adverse event: Thrombocytopenia [7]: 0 n (%) | Treatment-related adverse event: Unconjugated bilirubin increased [7]: 0 n (%) | Treatment-related adverse event: Vaginal hemorrhage [7]: 0 n (%) | Treatment-related adverse event: ALT increased [8]: 0 n (%) | Treatment-related adverse event: AST increased [8]: 0 n (%) | Treatment-related adverse event: Abdominal pain [8]: 0 n (%) | Treatment-related adverse event: Amylase increased [8]: 0 n (%) | Treatment-related adverse event: Blood urea increased [8]: 0 n (%) | Treatment-related adverse event: Conjugated bilirubin increased [8]: 0 n (%) | Treatment-related adverse event: Decreased appetite [8]: 0 n (%) | Treatment-related adverse event: Diarrhea [8]: 0 n (%) | Treatment-related adverse event: Dysphonia [8]: 0 n (%) | Treatment-related adverse event: Fatigue [8]: 0 n (%) | Treatment-related adverse event: Hematuria [8]: 0 n (%) | Treatment-related adverse event: Hyperbilirubinemia [8]: 0 n (%) | Treatment-related adverse event: Hypertension [8]: 0 n (%) | Treatment-related adverse event: Hypertriglyceridemia [8]: 0 n (%) | Treatment-related adverse event: Hypothyroidism [8]: 0 n (%) | Treatment-related adverse event: Leucopenia [8]: 0 n (%) | Treatment-related adverse event: Mouth ulceration [8]: 0 n (%) | Treatment-related adverse event: Nausea [8]: 0 n (%) | Treatment-related adverse event: Neutropenia [8]: 0 n (%) | Treatment-related adverse event: Palmar-plantar erythrodysesthesia syndrome [8]: 0 n (%) | Treatment-related adverse event: Proteinuria [8]: 0 n (%) | Treatment-related adverse event: Rash [8]: 0 n (%) | Treatment-related adverse event: Thrombocytopenia [8]: 0 n (%) | Treatment-related adverse event: Unconjugated bilirubin increased [8]: 0 n (%) | Treatment-related adverse event: Vaginal hemorrhage [8]: 0 n (%) | Treatment-related adverse event: ALT increased [9]: 0 n (%) | Treatment-related adverse event: AST increased [9]: 0 n (%) | Treatment-related adverse event: Abdominal pain [9]: 0 n (%) | Treatment-related adverse event: Amylase increased [9]: 0 n (%) | Treatment-related adverse event: Blood urea increased [9]: 0 n (%) | Treatment-related adverse event: Conjugated bilirubin increased [9]: 0 n (%) | Treatment-related adverse event: Decreased appetite [9]: 0 n (%) | Treatment-related adverse event: Diarrhea [9]: 0 n (%) | Treatment-related adverse event: Dysphonia [9]: 0 n (%) | Treatment-related adverse event: Fatigue [9]: 0 n (%) | Treatment-related adverse event: Hematuria [9]: 0 n (%) | Treatment-related adverse event: Hyperbilirubinemia [9]: 0 n (%) | Treatment-related adverse event: Hypertension [9]: 0 n (%) | Treatment-related adverse event: Hypertriglyceridemia [9]: 0 n (%) | Treatment-related adverse event: Hypothyroidism [9]: 0 n (%) | Treatment-related adverse event: Leucopenia [9]: 0 n (%) | Treatment-related adverse event: Mouth ulceration [9]: 0 n (%) | Treatment-related adverse event: Nausea [9]: 0 n (%) | Treatment-related adverse event: Neutropenia [9]: 0 n (%) | Treatment-related adverse event: Palmar-plantar erythrodysesthesia syndrome [9]: 0 n (%) | Treatment-related adverse event: Proteinuria [9]: 0 n (%) | Treatment-related adverse event: Rash [9]: 0 n (%) | Treatment-related adverse event: Thrombocytopenia [9]: 0 n (%) | Treatment-related adverse event: Unconjugated bilirubin increased [9]: 0 n (%) | Treatment-related adverse event: Vaginal hemorrhage [9]: 0 n (%) | treatment-related AE exceeding grade 3 (N = 18): No treatment-related AE exceeded grade 3 was observed | treatment-related deaths (N = 18): No treatment-related deaths occurred | treatment-related fatigue, irrespective of grade (N = 18): 61.1% | treatment-related grade 3 hyperglycemia (N = 18): one | treatment-related grade 3 hypertension (N = 18): two | treatment-related grade 3 neutropenia (N = 18): two | treatment-related hematuria, irrespective of grade (N = 18): 38.9% | treatment-related hypertension, irrespective of grade (N = 18): 33.3% | treatment-related hypertriglyceridemia, irrespective of grade (N = 18): 33.3% | treatment-related hypothyroidism, irrespective of grade (N = 18): 38.9% | treatment-related proteinuria, irrespective of grade (N = 18): 44.4% | patients with at least one AE (N = 18, all dose levels): 18 patients | patients with at least one treatment-related AE (N = 18, all dose levels): 94.4% | Treatment-related adverse event: ALT increased (Total, all cycles, N = 18): 2 (11.1) n (%) | Treatment-related adverse event: AST increased (Total, all cycles, N = 18): 3 (16.7) n (%) | Treatment-related adverse event: Abdominal pain (Total, all cycles, N = 18): 2 (11.1) n (%) | Treatment-related adverse event: Amylase increased (Total, all cycles, N = 18): 4 (22.2) n (%) | Treatment-related adverse event: Blood urea increased (Total, all cycles, N = 18): 2 (11.1) n (%) | Treatment-related adverse event: Conjugated bilirubin increased (Total, all cycles, N = 18): 5 (27.8) n (%) | Treatment-related adverse event: Decreased appetite (Total, all cycles, N = 18): 2 (11.1) n (%) | Treatment-related adverse event: Diarrhea (Total, all cycles, N = 18): 3 (16.7) n (%) | Treatment-related adverse event: Dysphonia (Total, all cycles, N = 18): 2 (11.1) n (%) | Treatment-related adverse event: Fatigue (Total, all cycles, N = 18): 11 (61.1) n (%) | Treatment-related adverse event: Hematuria (Total, all cycles, N = 18): 7 (38.9) n (%) | Treatment-related adverse event: Hyperbilirubinemia (Total, all cycles, N = 18): 2 (11.1) n (%) | Treatment-related adverse event: Hypertension (Total, all cycles, N = 18): 6 (33.3) n (%) | Treatment-related adverse event: Hypertriglyceridemia (Total, all cycles, N = 18): 6 (33.3) n (%) | Treatment-related adverse event: Hypothyroidism (Total, all cycles, N = 18): 7 (38.9) n (%) | Treatment-related adverse event: Leucopenia (Total, all cycles, N = 18): 3 (16.7) n (%) | Treatment-related adverse event: Mouth ulceration (Total, all cycles, N = 18): 2 (11.1) n (%) | Treatment-related adverse event: Nausea (Total, all cycles, N = 18): 4 (22.2) n (%) | Treatment-related adverse event: Neutropenia (Total, all cycles, N = 18): 4 (22.2) n (%) | Treatment-related adverse event: Palmar-plantar erythrodysesthesia syndrome (Total, all cycles, N = 18): 2 (11.1) n (%) | Treatment-related adverse event: Proteinuria (Total, all cycles, N = 18): 8 (44.4) n (%) | Treatment-related adverse event: Rash (Total, all cycles, N = 18): 2 (11.1) n (%) | Treatment-related adverse event: Thrombocytopenia (Total, all cycles, N = 18): 2 (11.1) n (%) | Treatment-related adverse event: Unconjugated bilirubin increased (Total, all cycles, N = 18): 2 (11.1) n (%) | Treatment-related adverse event: Vaginal hemorrhage (Total, all cycles, N = 18): 2 (11.1) n (%) | MTD (administered orally once daily): 50 mg | recommended phase II dose (RP2D) (administered orally once daily, monotherapy): 50 mg | maximum tolerated dose (MTD) (patients, oral once daily, 28-day cycles): 50 mg/day | IC50 [1]: single-digit nanomolar range | IC50 [2]: single-digit nanomolar range | IC50 [3]: single-digit nanomolar range | activity on off-targets [4]: little activity
